Data on three compounds can be found in ChEMBL document CHEMBL2424532, “Investigation of an F-18 oxytocin receptor selective ligand via PET imaging” (Bioorg Med Chem Lett, 2013).

One series concerns the target T1, Vasopressin V1b receptor (Homo sapiens, UniProt P47901).
T1 sequence (P47901 whole entry): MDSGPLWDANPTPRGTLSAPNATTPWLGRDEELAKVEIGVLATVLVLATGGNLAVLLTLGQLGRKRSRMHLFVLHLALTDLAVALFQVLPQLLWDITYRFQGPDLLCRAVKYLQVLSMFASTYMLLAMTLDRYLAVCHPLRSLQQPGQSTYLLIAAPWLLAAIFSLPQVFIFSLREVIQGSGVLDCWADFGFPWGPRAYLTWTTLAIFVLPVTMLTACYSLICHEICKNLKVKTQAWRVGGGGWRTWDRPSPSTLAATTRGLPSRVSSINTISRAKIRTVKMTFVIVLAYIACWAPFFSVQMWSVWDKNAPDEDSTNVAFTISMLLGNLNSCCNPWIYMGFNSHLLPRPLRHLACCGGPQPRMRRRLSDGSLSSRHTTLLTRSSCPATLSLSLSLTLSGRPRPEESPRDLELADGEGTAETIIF
Nature of the series: Binding affinity to human V1BR by competitive binding assay.

Another series addresses T2, Oxytocin receptor (Homo sapiens, UniProt P30559).
T2 sequence (P30559 whole entry): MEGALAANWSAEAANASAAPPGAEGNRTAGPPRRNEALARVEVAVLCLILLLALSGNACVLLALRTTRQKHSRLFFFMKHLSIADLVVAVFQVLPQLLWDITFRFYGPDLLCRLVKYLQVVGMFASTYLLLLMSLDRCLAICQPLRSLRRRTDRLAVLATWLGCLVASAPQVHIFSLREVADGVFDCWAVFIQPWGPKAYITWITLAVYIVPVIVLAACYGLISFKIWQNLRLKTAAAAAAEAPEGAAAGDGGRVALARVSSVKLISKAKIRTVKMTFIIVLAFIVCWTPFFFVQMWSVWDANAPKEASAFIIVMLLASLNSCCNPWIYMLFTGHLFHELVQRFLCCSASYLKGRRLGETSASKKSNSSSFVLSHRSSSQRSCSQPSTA
Briefly: Binding affinity to human OTR by competitive binding assay.

Series [1] addresses T3, Alpha-1A adrenergic receptor (Homo sapiens, UniProt P35348).
T3 sequence (P35348 whole entry): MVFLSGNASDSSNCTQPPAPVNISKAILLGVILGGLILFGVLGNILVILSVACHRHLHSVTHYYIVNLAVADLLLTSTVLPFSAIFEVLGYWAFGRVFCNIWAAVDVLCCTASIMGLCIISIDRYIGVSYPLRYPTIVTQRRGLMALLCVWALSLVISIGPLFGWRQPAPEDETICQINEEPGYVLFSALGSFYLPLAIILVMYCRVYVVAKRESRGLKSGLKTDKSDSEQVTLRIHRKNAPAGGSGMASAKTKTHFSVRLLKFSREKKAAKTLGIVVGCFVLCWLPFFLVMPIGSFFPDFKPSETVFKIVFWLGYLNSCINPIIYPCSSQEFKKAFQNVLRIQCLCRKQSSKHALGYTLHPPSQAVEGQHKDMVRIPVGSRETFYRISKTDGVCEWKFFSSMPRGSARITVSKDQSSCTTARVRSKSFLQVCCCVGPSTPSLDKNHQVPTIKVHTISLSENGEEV
Nature of the series: Binding affinity to human adrenergic alpha-1A receptor by competitive binding assay.

In series [2] the target is Serotonin (5-HT) receptor. Briefly: Binding affinity to human 5HTB receptor by competitive binding assay. Format: protein assay.
Another series addresses D(3) dopamine receptor (Homo sapiens, UniProt P35462). Briefly: Binding affinity to human dopamine D3 receptor by competitive binding assay.
The target in another series is Vasopressin V1a receptor (Homo sapiens, UniProt P37288). Briefly: Binding affinity to human V1AR by competitive binding assay.
Another series has as its target Vasopressin V2 receptor (Homo sapiens, UniProt P30518). Nature of the series: Binding affinity to human V2R by competitive binding assay.
Series [3] addresses 5-hydroxytryptamine receptor 1B (Homo sapiens, UniProt P28222). Nature of the series: Binding affinity to human 5HT1B receptor by competitive binding assay.
Series [4] concerns the target T4, Muscarinic acetylcholine receptor M4 (Homo sapiens, UniProt P08173).
T4 sequence (P08173 whole entry): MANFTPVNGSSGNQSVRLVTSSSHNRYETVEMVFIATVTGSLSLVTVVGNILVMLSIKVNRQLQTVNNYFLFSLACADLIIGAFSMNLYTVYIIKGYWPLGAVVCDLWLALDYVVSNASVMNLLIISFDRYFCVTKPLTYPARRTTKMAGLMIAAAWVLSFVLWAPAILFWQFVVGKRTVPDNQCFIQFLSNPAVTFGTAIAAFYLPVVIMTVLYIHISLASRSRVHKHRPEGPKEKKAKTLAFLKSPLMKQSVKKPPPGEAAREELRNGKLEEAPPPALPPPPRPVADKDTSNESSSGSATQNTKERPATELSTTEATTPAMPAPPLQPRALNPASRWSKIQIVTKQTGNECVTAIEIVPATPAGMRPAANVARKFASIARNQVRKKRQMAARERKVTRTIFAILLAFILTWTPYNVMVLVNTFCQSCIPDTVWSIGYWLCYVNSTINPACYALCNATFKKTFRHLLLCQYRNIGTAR
Briefly: Binding affinity to human muscarinic M4 receptor by competitive binding assay.

Series [5] concerns the target 5-hydroxytryptamine receptor 6 (Homo sapiens, UniProt P50406). Nature of the series: Binding affinity to human 5HT6 receptor by competitive binding assay.
For series [6], the target named is 5-hydroxytryptamine receptor 2B (Homo sapiens, UniProt P41595). Nature of the series: Binding affinity to human 5HT2B receptor by competitive binding assay.
Series [7] can be described thus: Drug uptake in cynomolgus monkey choroid plexus at 5.5 mCi after 2 hrs in presence of unlabeled compound administered 45 mins before tracer challenge. The class given is ADME, Macaca fascicularis. The note with it: in vivo.
The subject of series [8] is Brain. Briefly: Drug uptake in Sprague-Dawley rat brain at 280 uCi after 20 mins by PET analysis. Format: ADME, tissue-based. Particulars: in vivo; call rule not given here.
The test system of series [9] is Brain. Briefly: Drug uptake in Sprague-Dawley rat brain at 280 uCi up to 20 mins by PET analysis. Particulars: in vivo. Format: ADME, tissue-based.
Series [10] is described as follows: Lipophilicity, log P of the compound at pH 7.4. Format: physicochemical. Particulars: buffer.
Series [11] is described as follows: Drug uptake in cynomolgus monkey choroid plexus at 5.5 mCi after 2 hrs in presence of unlabeled compound administered 30 mins before tracer challenge. Format: ADME, Macaca fascicularis. Particulars: in vivo.
Series [12] is described as follows: Drug uptake in cynomolgus monkey middle cerebral artery of cerebral cortex at 5.5 mCi up to 15 mins. Format: ADME, tissue-based, Macaca fascicularis. The note with it: in vivo, 0.25 h.

Sequence of Vasopressin V2 receptor (P30518 whole entry): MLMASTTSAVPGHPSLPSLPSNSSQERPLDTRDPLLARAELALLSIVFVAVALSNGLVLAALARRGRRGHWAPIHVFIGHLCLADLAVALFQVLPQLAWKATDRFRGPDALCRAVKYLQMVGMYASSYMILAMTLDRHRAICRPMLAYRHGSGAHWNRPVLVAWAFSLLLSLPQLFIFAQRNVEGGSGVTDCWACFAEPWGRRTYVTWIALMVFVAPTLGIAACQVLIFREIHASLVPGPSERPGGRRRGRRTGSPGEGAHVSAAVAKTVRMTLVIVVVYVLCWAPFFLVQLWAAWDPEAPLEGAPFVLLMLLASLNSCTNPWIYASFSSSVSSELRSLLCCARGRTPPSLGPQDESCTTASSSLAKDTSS
Sequence of 5-hydroxytryptamine receptor 1B (P28222 whole entry): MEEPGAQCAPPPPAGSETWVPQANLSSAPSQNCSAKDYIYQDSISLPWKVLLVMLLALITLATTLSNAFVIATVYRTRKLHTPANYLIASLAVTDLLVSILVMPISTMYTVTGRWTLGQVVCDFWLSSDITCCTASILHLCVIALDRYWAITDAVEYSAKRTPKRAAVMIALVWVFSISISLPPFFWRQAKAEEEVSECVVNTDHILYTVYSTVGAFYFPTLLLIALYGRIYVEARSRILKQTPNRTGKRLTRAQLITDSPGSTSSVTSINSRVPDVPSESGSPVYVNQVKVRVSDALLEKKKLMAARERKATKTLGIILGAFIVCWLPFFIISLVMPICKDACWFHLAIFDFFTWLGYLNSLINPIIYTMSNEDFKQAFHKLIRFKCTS
Sequence of 5-hydroxytryptamine receptor 2B (P41595 whole entry): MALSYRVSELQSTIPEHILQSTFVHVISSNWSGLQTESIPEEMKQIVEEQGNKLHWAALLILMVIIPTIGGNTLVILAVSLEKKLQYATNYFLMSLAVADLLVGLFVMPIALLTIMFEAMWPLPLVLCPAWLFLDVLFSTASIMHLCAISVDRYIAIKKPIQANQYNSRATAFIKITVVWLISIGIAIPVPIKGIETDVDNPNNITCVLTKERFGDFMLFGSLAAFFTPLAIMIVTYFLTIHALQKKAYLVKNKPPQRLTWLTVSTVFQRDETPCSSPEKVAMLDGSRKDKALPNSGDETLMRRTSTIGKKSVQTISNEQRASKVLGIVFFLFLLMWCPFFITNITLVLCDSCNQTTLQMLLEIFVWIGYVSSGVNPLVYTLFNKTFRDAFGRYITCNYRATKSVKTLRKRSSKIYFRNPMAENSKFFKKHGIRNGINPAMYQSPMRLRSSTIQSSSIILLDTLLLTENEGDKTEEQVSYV
Sequence of Vasopressin V1a receptor (P37288 whole entry): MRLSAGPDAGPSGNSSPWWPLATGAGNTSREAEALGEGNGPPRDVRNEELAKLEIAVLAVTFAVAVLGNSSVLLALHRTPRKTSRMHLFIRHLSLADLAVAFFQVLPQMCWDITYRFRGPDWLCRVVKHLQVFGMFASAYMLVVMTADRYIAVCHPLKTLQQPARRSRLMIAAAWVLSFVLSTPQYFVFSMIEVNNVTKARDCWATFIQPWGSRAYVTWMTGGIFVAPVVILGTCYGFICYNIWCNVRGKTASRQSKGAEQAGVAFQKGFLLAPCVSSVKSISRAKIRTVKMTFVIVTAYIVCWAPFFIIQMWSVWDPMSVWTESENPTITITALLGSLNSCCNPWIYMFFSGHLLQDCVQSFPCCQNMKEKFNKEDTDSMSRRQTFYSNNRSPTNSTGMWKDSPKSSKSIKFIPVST
Sequence of D(3) dopamine receptor (P35462 whole entry): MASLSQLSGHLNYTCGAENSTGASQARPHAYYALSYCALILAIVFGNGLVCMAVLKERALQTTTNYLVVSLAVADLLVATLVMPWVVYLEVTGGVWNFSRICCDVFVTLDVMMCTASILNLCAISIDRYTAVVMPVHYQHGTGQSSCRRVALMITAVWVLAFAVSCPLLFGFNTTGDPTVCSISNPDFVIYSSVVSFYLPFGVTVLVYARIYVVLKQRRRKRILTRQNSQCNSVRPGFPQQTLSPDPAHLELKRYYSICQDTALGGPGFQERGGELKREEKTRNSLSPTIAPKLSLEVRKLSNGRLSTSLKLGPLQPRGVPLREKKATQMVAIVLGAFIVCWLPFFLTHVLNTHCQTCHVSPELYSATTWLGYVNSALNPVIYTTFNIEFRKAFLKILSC
Sequence of 5-hydroxytryptamine receptor 6 (P50406 whole entry): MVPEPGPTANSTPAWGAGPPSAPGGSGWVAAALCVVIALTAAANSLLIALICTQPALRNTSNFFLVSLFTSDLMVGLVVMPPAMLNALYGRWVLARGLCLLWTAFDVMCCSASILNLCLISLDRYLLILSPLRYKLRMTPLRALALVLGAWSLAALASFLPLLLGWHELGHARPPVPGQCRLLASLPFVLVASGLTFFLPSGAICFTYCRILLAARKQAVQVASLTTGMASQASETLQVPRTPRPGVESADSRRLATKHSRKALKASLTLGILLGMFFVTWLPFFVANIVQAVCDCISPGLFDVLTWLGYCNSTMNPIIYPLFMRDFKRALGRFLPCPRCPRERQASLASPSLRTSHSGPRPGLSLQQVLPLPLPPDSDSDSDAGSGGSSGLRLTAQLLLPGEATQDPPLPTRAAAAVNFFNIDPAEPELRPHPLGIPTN

In the case of `CS(=O)(=O)N1CCC(Oc2ccc(CC(=O)N3CCC(N4C(=O)CCc5ccccc54)CC3)c(OCCF)c2)CC1`, the Ki (commonly a dissociation constant, usually derived from enzyme kinetics or from competition with a known ligand) at Vasopressin V1b receptor is more than 10 µM.

Take `Cl.O=C(Cc1ccc(OC2CCNCC2)cc1OCCF)N1CCC(N2C(=O)CCc3ccccc32)CC1`: the Ki at Oxytocin receptor was 0.015 µM; on Vasopressin V1b receptor it was more than 10 µM; in series [1] it was 0.08 µM; in series [2], 1.27 µM; at D(3) dopamine receptor, 6.79 µM; on Vasopressin V1a receptor, 5.6 µM. The Ki at Vasopressin V2 receptor was 8.7 µM; in series [3] it was 0.7 µM; in series [4], 1.27 µM; in series [5], 0.187 µM; in [6], 0.5 µM.

On to `O=C(Cc1ccc(OC2CCNCC2)cc1OCC[18F])N1CCC(N2C(=O)CCc3ccccc32)CC1`, for which the Drug uptake result is “Active” in [7]; “Not Active” in the series on Brain [8]; “Active” with Brain [9]; “Active” in series [11]; “Active” in series [12]. Further, in [10], the logD – broadly, lipophilicity at a set pH, counting ionised and neutral species – worked out at 1.57.
